According to publication PMC9980389, “Structural and biochemical insights into PsEst3, a new GHSR-type esterase obtained from Paenibacillus sp. R4” (IUCrJ, 2023):

Key:
PsEst3 [1] = target: T1, PsEst3 (Paenibacillus sp. R4, UniProt Z9AKP1HDK8); test: fluorescein diester hydrolysis, fluorescence […] nm; assay type: biochemical; conditions: 20 mM Tris-HCl pH 8.0, 150 mM NaCl, 30 °C, 0.1 µM substrate, 10% 2-ethoxyethanol, 0.005% CHAPS
T1 construct: pET-22b in E. coli BL21(DE3)/pPsyGroELS, 6xHis tag kept (Ni-NTA, SEC); residues 4-258 built, including part of the His tag
T1 sequence (Z9AKP1HDK8 1-257): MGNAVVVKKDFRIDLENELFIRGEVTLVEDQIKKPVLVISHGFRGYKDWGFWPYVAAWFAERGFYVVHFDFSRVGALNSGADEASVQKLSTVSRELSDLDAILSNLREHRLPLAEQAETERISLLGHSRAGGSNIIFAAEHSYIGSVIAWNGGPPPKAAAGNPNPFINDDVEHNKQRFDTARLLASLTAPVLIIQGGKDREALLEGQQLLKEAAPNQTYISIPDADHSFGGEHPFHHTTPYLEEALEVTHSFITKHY

PsEst3 [2] = target: T1, PsEst3; test: inhibition of pNP-C2 hydrolysis, absorbance […] nm; assay type: biochemical; conditions: substrate pNP-C2

Row | SMILES | fluorescein diester hydrolysis, fluorescence 492/512 nm (PsEst3 [1]) | % decrease in activity at 2.4 mM (PsEst3 [2])
1 | CCCC(=O)Oc1ccc2c(c1)Oc1cc(OC(=O)CCC)ccc1C21OC(=O)c2ccccc21 [fluorescein-diC4, fluorescein dibutyrate] | fluorescein diesters (fluorescein-diC4, fluorescein-diC8 and fluorescein-diC12) were measured | –
2 | O=C(O)/C=C\C(=O)O [maleic acid] | – | ~ 40%
